Molecular target: T1, 5-LO (Homo sapiens, UniProt P09917)
T1 construct: release of leukotriene B4 (LTB4) in polymorphonuclear human leucocytes (PMN); endogenous in cells; host or cells: human polymorphonuclear leucocytes (PMN)
T1 sequence (P09917 1-674): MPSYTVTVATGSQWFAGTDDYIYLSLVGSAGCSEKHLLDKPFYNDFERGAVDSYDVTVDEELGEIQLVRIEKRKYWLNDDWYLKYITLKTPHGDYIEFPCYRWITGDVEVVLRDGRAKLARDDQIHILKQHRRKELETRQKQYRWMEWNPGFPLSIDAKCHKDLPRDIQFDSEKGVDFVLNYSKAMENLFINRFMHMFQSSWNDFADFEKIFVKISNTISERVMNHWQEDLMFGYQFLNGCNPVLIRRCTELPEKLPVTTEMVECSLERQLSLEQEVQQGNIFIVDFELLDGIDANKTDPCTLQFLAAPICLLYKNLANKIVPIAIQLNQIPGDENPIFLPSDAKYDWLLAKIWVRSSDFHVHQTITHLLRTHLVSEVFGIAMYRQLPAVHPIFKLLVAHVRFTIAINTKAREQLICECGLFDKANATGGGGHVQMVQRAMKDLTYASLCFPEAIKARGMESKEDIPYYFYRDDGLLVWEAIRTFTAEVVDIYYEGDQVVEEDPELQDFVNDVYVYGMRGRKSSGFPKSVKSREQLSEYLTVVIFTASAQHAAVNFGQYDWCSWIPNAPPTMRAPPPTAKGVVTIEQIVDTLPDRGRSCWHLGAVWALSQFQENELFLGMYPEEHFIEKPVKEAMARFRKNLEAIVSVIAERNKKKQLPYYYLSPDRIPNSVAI
Assay: lipoxygenase inhibition: release of leukotriene B4 (LTB4) in polymorphonuclear human leucocytes (PMN) after Ca ionophore, by reverse phase HPLC
Type: cell-based
Settings: LTB4 release in human PMN after addition of substance and Ca ionophore; RP-HPLC
Method: As a measure of lipoxygenase inhibition, the release of leukotriene B4 (LTB4) in polymorphonuclear human leucocytes (PMN) after addition of substances and Ca ionophore was determined by means of reverse phase HPLC according to Borgeat, P. et al., Proc. Nat. Acad. Sci., 76, 2148-2152 (1979).

| Structure (SMILES) | IC50 |
| --- | --- |
| NC(=O)N(O)C(c1ccc(OCc2ccc3ccccc3n2)cc1)C1CCCCC1 (centres unmarked) [Example 1, N-[4-(Quinolin-2-yl-methoxy)phenyl-cyclohexyl]methyl-N-hydroxyurea] | 250 nM |
| NC(=O)N(O)C(c1ccc(OCc2ccc3ccccc3n2)cc1)C1CCCC1 (centres unmarked) [Example 2, N-[4-(Quinolin-2-yl-methoxy)phenyl-cyclopentyl]methyl-N-hydroxyurea] | 1200 nM |

From patent US5231103A, “Quinolin-2-yl-methoxybenzylhydroxyureas” (Bayer Aktiengesellschaft, priority 1991, dated 1993)
